Test results as given in patent publication US12337009B2, “Nucleotide derivatives and methods of use thereof” (The Trustees of Columbia University in the City of New York, priority 2016, dated 2025).

Assays:
DNA polymerase = system: DNA polymerase
Text: FIGS. 23A-23B. MALDI-TOF mass spectra of DNA extension products from polymerase reactions using 3′-O-Rox-SS-dATP for 5, 10, and 30 cycles.
FIGS. 25A-25C. MALDI-TOF mass spectrum of DNA extension products from polymerase reactions using a mixture of 3′-O-tButyl-SS-dATP and 3′-O-Rox-SS-dATP at a 1:1 ratio. […] FIG. 25B: 3′-O-tButyl-SS-dATP (M.W. 625). FIG. 25C: 3′-O-Rox-SS-dATP (M.W. 1157).
FIG. 26. MALDI-TOF mass spectrum of a DNA extension product from polymerase reaction using 3′-O-TCO-SS-dTTP.
FIGS. 27A-27B. MALDI-TOF mass spectrum of a DNA extension product from polymerase reaction using 3′-O-Biotin-dCTP.
FIGS. 28A-28C. MALDI-TOF mass spectrum of DNA extension products from polymerase reaction using with a mixture of 3′-O-Rox-SS-dATP and 3′-O-Rox-PEG4-SS-dATP at a 1:1 ratio.

[1] = system: Therminator IX DNA polymerase; test: Polymerase extension reaction with 3′-O-modified reversible terminators, MALDI-TOF MS readout; assay type: biochemical; conditions: extension reactions incl. 1:1 mixtures of two terminators, MALDI-TOF MS (FIGS. 23A-28C)
Method: The reaction was conducted in an ABI GeneAmp PCR System 9700 with initial incubation at 65° C. for 30 second, followed by 38 cycles of 65° C./30 sec, 45° C./30 sec, 65° C./30 sec. Multiple reactions were carried out and an aliquot of the reaction mixture was desalted using a C18 ZipTip column (Millipore, MA) and analyzed by MALDI-TOF MS (ABI Voyager DE). Polymerase extension reaction using 3'-O-SS-Rox-dATP for 5, 10, and 30 cycles. […] The reactions were conducted in an ABI GeneAmp PCR System 9700 with initial incubation at 65° C. for 30 second, followed by 5, 10, or 30 cycles of 65° C./30 sec, 45° C./30 sec, 65° C./30 sec. The reaction mixtures were desalted using Oligo Clean & ConcentratorTM (ZYMO Research) and analyzed by MALDI-TOF MS (ABI Voyager DE) and the results are shown in FIGS. 23A-23B. DNA template: [NT] ID NO:6). […] The reaction mixtures were desalted using Oligo Clean & ConcentratorTM (ZYMO Research) and analyzed by MALDI-TOF MS (ABI Voyager DE) the result is shown in FIG. 24. […] The reaction mixtures were desalted using Oligo Clean & ConcentratorTM (ZYMO Research) and analyzed by MALDI-TOF MS (ABI Voyager DE) the result is shown in FIGS. 25A-25C. […] The reaction mixtures were desalted using Oligo Clean & ConcentratorTM (ZYMO Research) and analyzed by MALDI-TOF MS (ABI Voyager DE) the result is shown in FIGS. 28A-28C. […]

How did the extension (DNA polymerase; after 5 cycles of extension) turn out when `CC(C)(C)SSCO[C@H]1C[C@H](n2cnc3c(N)ncnc32)O[C@@H]1COP(=O)(O)OP(=O)(O)OP(=O)(O)O` [3′-O-tButyl-SS-dATP, 3′-O-t-Butyldithiomethyl(SS)-dATP] was run?
The extension was “completed”.

And the “efficiency of incorporation by polymerase versus 3′-O-Rox-SS-dATP” value (DNA polymerase; mixture at a 1:1 ratio)?
The value was “much higher efficiency”.

What about the “height of the extension product peak versus that with 3′-O-Rox-SS-dATP” value (DNA polymerase; mixture at a 1:1 ratio, after 5 cycles) of the same molecule?
Its value is “more than twice”.

And the “incorporation efficiency relative to another nucleotide analogue” value [1]?
The value was “much higher efficiency than 3′-O-Rox-SS-dATP”.
